Laboratory results reported in ChEMBL document CHEMBL1143228, “Inhibition of lipopolysaccharide-induced inducible nitric oxide synthase and cyclooxygenase-2 expression by xanthanolides isolated from Xanthium strumarium” (Bioorg Med Chem Lett, 2008).
Activity calls are given as the source filed them. The calls are words filed in the database; no cut-off is given here.

What was measured:
[1] = test system: BV-2; assay: Inhibition of COX2 mRNA expression in LPS-stimulated mouse BV2 cells at 20 uM after 4 hrs by RT-PCR; type: functional, cell-based
[2] = test system: BV-2; assay: Inhibition of iNOS mRNA expression in LPS-stimulated mouse BV2 cells at 20 uM after 4 hrs by RT-PCR; type: functional, cell-based
[3] = test system: BV-2; assay: Inhibition of COX2 expression in LPS-stimulated mouse BV2 cells after 20 hrs by Western blot analysis; type: functional, cell-based
[4] = test system: BV-2; assay: Inhibition of iNOS expression in LPS-stimulated mouse BV2 cells at 20 uM after 20 hrs by Western blot analysis; type: functional, cell-based
[5] = test system: BV-2; assay: Inhibition of NO production in LPS-activated mouse BV2 cells by […]; type: functional, cell-based
[6] = test system: BV-2; assay: Inhibition of IkappaB alpha degradation in LPS-induced mouse BV2 cells at 20 uM after 30 mins by Western blot analysis; type: functional, cell-based
[7] = test system: BV-2; assay: Inhibition of NF-kappaB activity in LPS-stimulated mouse BV2 cells at 10 uM after 1 hr by luciferase reporter gene assay; type: cell-based

C=C1C(=O)O[C@H]2C[C@H](C)C(CCC(C)=O)=CC[C@H]12
Activity [1]: Active | Activity [2]: Active | Activity [3]: Active | Activity [4]: Active | IC50 [5]: 11.2 µM | Activity [6]: Active

C=C(C(=O)O)[C@H]1CC=C(/C=C/C(C)=O)[C@@H](C)CC1
IC50 [5]: 136 µM

C=C1C(=O)O[C@H]2C[C@H](C)C(/C=C/C(C)=O)=CC[C@H]12
Activity [1]: Active | Activity [2]: Active | Activity [3]: Active | Activity [4]: Active | IC50 [5]: 0.47 µM | Activity [6]: Active | Activity [7]: Active
